Source: patent US12391679B2, “Benzamide-substituted bicyclic imidazo- and pyrazolo-fused -pyridine, -pyrimide, and -pyridazine compounds for treatment of inflammatory diseases” (ONCO3R Therapeutics BV, priority 2019, dated 2025)

Columns and labels:
[1] = target: T1, SIK1 (Homo sapiens, UniProt P57059); experiment: 33P radioactive kinase assay, SIK1; format: biochemical
T1 construct: purchased Carna Biosciences 02-131
Method: (§1) The principle of the ^33P radioactive kinase assay consists in measuring the incorporated ^33P into the substrate AMARA peptide when phosphorylated by SIK1, SIK2 or SIK3 using [^33P]-g-ATP, which correlates with kinase activity.
(§2) The test compounds are prepared as a serial dilution of 10 point dose responses with 1/5 dilution steps in 100% DMSO starting from 2 mM highest concentration, diluted 1/20 in water and 5 μL is transferred to the assay plates (Greiner, Cat #651201).
(§3) 1% DMSO and 10 μM staurosporine final concentrations are used as negative and positive controls.
(§4) 11 μL of enzyme-substrate mixture is added on the assay plates. The reactions are started by adding 9 μL ATP mixture, consisting of non-labeled and ^33P-labeled ATP, on the assay plates.
(§5) The reactions are stopped by adding 25 μL phosphoric acid (150 mM) to the reactions.
(§6) The completely terminated kinase reactions are transferred using a harvester on pre-wetted UniFilter-96 plates (UniFilter-96 GF/B, PerkinElmer Inc., Cat #6005177).
(§7) After harvesting the kinase reactions, the filter plates are washed 6 times with phosphoric acid (75 mM). The back of the UniFilter-96 plates are sealed and 40 μL MicroScint-20 (PerkinElmer Inc., Cat #6013621) is added to each well. The top of the plates are sealed with TopSeal-A. Read-out is performed with a TopCount instrument (PerkinElmer Inc.).
(§8) Raw data are generated following the read-out performed on the TopCount, plotted to generate dose response curves to calculate percentage inhibition (PIN) and average IC50 for each SIK homologue which are reported in the table below.

[2] = target: T2, SIK2 (Homo sapiens, UniProt Q9H0K1); experiment: 33P radioactive kinase assay, SIK2; format: biochemical; note: AMARA 5 µM, 10 µM ATP
T2 construct: purchased ThermoFisher Scientific PV4792
Method: as §1, §2, §3, §4, §5, §6, §7, §8

[3] = target: T3, SIK3 (Homo sapiens, UniProt Q9Y2K2); experiment: 33P radioactive kinase assay, SIK3; format: biochemical; conditions: 33P radioactive assay; AMARA 7 μM; 15 μM ATP; 80 min; average IC50
T3 construct: purchased SignalChem S12-11G-100
Method: as §1, §2, §3, §4, §5, §6, §7, §8

[4] = target: T1, SIK1; experiment: ADP-Glo kinase assay, SIK1; format: biochemical
How it was run: (§9)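 Luminescent ADP-Glo readout of ADP formed. Enzyme-substrate mix with ATP, reaction 120 min at RT, then 40 min ATP depletion and 30 min detection. Controls were 1% DMSO (negative) and 10 μM staurosporine (positive), both final.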

[5] = target: T2, SIK2; experiment: ADP-Glo kinase assay, SIK2; format: biochemical
How it was run: as §9

[6] = target: T3, SIK3; experiment: ADP-Glo kinase assay, SIK3; format: biochemical
How it was run: as §9

[7] = test system: LPS-induced TNFα in monocytes; experiment: Monocytes assay: LPS-triggered TNFα (ELISA); format: cell-based, human; conditions: Homo sapiens, Monocyte, LPS-triggered TNFα inhibition
How it was run: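 CD14+ monocytes were magnetically isolated from human buffy-coat PBMCs, preincubated with compound 1 h at 37 °C (0.2% DMSO), then stimulated with LPS at 200 ng/mL for 4 h. Supernatant TNFα was measured by luminescent sandwich ELISA; percentage inhibition was calculated against controls for each concentration.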

[8] = test system: LPS triggered IL-10 secretion in monocytes; experiment: Monocytes assay: LPS-triggered IL-10 (ELISA); format: cell-based, human; conditions: Homo sapiens, Monocyte, LPS-triggered IL-10 induction, median maximal fold change vs LPS only, read-out: IL-10 FCmax median
Method: This assay evaluates illustrative compounds of the invention for their inhibition of LPS-induced TNFα and LPS triggered IL-10 secretion in monocytes.
PBMCs are isolated from human blood samples (buffycoats). The buffy coat is aseptically transferred into a 50 mL Falcon tube, and diluted 1/2 in PBS. Falcon tubes are filled with 20 mL Lymphoprep™, on top of which 25 mL of the buffy coat is carefully added, tubes are centrifuged for 35 min at 400 g in temperature controlled centrifuge, without brake, at 25° C. PBMCs are aspirated from the white interface layer between sample and Lymphoprep™. PBMCs are washed five times in PBS.
PBMCs are centrifuged at 300×g for 10 min and resuspended at a density of 1.0*10^7 cells/80 μL Miltenyi buffer (PBS, pH 7.4, 1% FBS, 2 mM EDTA).
Starting from this point of the protocol all steps are performed on ice. 20 μL of CD14+ micro-beads are added per 1.0*10^7 cells, the tube is mixed and incubated for 15 min in the fridge at 4° C. Cell suspension volume is adjusted to total volume of 100 mL using Miltenyi buffer, mixed gently and subsequently centrifuged for 10 min at 300×g. Supernatant is discarded and cell pellet is resuspended in 12 mL of Miltenyi buffer.
Four LS columns are placed in the MACS Separator (magnet) from Miltenyi Biotec, and are prewet by rinsing with 3 mL of MACS buffer per column. Three mL of cell suspension is added onto the column (max 1*10^8 of labelled cells/column), and columns are subsequently washed 3 times with 3 mL of Miltenyi buffer.
The columns are removed from the magnets, and 5 mL of Miltenyi buffer are added to the column to flush out the CD14+ fraction by pushing the plunger into the column. The flushed fractions are collected in a fresh 50 mL Falcon and volume is adjusted to 30 mL using Miltenyi buffer, cells are centrifuged for 10 min at 300×g. The obtained cell pellet is resuspended in 10 mL RPMI w/o FBS, and cell density is determined using a hematologic analyser (Sysmex XS-500i).
A compound dilution plate is made in 100% DMSO by 3-fold dilution of 10 mM stock solution. An intermediate dilution plate (10× final concentration) is made by diluting the compound dilution plate 50-fold in RPMI medium.
10 μL of the 10× final concentration compound is added to the cells and incubated for 1 h at 37° C. before addition of trigger. No trigger conditions/trigger conditions are spiked with equal final DMSO concentrations of 0.2% DMSO. 10 μL of 10×LPS (final conc. 200 ng/mL) solution are added to all wells except for the ‘no trigger wells’ where 10 μL medium is added. Supernatant is collected after 4 h of LPS triggering.
A Lumitrac 600 Greiner 384-well plate is coated with 40 μL of capture antibody (final concentration of 1 μg/mL in 1×PBS) and stored overnight at 4° C. The next day the plate is washed three times with PBST (PBS+0.05% Tween20) and once with PBS followed by the addition of 100 μL of blocking buffer (1% BSA-5% Sucrose) and plates are sealed and incubated for at least 4 h at RT. After washing the plate once with PBST and once with PBS, 40 μL of standard or sample are added (IL-10 standard curve is prepared using a 1/2 serial dilution starting from 2000 pg/mL; dilutions are made in dilution buffer (PBS+1% BSA)). […] Plates are washed twice with PBST, and once with PBS, whereafter 35 μL of Strep-HRP conjugate (0.5 μg/mL final concentration diluted in dilution buffer) is added. Plates are incubated in the dark, at RT for at least 45 min but no longer than 1 h. Plates are washed twice with PBST, and once with PBS. Thereafter, 50 μL of luminol substrate is added to each well (prepared according to manufacturer's instructions), and incubated for 5 min at RT protected from light.
To quantify these increases, fold changes (FC) compared to ‘LPS only’ are calculated for each concentration tested and the maximal FC is calculated (IL-10 FCmax): […]

[9] = ADP-Glo, AMARA 45 μM, 5 μM ATP, 120 min, average IC50

T2 sequence (Q9H0K1 whole entry): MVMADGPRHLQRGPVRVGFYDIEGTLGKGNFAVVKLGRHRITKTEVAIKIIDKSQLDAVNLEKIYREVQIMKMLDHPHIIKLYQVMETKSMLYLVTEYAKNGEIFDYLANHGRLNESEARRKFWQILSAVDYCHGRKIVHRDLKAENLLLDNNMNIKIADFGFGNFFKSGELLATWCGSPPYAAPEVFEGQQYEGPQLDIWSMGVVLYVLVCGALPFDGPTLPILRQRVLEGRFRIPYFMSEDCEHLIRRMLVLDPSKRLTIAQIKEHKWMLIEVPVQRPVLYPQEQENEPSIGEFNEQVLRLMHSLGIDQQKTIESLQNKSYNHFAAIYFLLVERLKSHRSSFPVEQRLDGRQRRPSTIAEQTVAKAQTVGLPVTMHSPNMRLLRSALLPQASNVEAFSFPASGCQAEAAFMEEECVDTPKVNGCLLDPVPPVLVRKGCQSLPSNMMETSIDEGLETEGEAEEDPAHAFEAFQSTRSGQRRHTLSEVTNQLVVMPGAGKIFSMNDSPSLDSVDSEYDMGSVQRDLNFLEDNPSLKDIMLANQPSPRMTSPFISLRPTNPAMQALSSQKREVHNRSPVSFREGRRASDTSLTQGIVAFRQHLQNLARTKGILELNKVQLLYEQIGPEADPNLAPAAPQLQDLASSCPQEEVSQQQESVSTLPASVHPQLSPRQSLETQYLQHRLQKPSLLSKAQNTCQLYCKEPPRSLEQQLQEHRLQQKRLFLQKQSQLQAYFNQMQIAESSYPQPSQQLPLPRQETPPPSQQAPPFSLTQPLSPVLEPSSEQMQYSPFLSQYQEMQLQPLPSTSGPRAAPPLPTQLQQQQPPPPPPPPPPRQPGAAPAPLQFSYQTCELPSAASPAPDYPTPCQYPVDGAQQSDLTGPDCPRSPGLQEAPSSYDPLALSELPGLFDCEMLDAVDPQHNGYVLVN
T1 sequence (P57059 whole entry): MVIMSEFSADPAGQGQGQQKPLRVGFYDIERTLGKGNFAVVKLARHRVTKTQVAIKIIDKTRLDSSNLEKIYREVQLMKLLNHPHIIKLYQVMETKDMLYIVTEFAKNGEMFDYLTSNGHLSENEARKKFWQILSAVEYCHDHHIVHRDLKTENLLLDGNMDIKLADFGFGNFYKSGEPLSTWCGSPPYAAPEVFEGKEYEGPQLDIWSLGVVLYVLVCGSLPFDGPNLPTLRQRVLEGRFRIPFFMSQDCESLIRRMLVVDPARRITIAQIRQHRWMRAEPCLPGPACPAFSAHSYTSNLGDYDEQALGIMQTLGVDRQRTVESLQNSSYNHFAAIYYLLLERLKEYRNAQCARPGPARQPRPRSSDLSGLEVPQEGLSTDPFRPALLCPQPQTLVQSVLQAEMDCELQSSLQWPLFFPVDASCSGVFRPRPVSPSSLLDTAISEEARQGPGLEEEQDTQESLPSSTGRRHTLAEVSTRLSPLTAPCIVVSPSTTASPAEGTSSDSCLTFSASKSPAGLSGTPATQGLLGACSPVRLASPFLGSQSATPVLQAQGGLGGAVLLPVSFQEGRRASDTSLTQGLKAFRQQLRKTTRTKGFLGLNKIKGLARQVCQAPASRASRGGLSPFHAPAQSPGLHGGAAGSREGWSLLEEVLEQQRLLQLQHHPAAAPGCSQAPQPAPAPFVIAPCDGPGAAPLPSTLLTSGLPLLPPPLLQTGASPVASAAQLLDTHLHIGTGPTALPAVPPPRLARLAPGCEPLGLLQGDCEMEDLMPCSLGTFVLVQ
T3 sequence (Q9Y2K2 59-365 limits assumed): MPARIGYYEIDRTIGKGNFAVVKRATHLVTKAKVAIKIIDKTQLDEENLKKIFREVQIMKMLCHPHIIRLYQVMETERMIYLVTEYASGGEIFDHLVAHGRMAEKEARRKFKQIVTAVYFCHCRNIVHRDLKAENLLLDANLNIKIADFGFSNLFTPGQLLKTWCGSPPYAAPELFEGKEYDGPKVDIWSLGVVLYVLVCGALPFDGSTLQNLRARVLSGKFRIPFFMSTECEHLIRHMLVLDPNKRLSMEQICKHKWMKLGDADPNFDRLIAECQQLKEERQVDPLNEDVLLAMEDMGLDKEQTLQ

IC50 [1] [nM]	IC50 [2] [nM]	IC50 [3] [nM]	IC50 [4] [nM]	IC50 [5] [nM]	IC50 [6] [nM]	EC50 [7] [nM]	IC50 [4, 9] [nM]	IC50 [5, 9] [nM]	IC50 [6, 9] [nM]	Structure (SMILES)	maximal fold induction [8]
> 500	> 500	> 500								COc1cc(-n2cnc3cc(C4CCN(C)CC4)ccc32)cc(OC)c1C(=O)NCC(F)(F)F [Cpd 1, 2,6-dimethoxy-4-[5-(1-methyl-4-piperidyl)benzimidazol-1-yl]-N-(2,2,2-trifluoroethyl)benzamide]	
> 500	100 to 500	100 to 500								COc1cc(-n2cnc3cc(C4CCN(C(=O)OC(C)(C)C)CC4)ccc32)cc(OC)c1C(=O)NCC(F)(F)F [Cpd 2, tert-butyl 4-[1-[3,5-dimethoxy-4-(2,2,2-trifluoroethylcarbamoyl)phenyl]benzimidazol-5-yl]piperidine-1-carboxylate]	
> 500	100 to 500	100 to 500								COc1cc(-n2cnc3cc(C4CCNCC4)ccc32)cc(OC)c1C(=O)NCC(F)(F)F [Cpd 3, 2,6-dimethoxy-4-[5-(4-piperidyl)benzimidazol-1-yl]-N-(2,2,2-trifluoroethyl)benzamide]	
			100 to 500	100 to 500	10 to 100	100 to 1000				COc1cc(-c2cnc3cc(C(C)(C)F)ccn23)cc(OC(F)F)c1C(=O)NC1CC1 [Cpd 133, N-cyclopropyl-2-(difluoromethoxy)-4-[7-(1-fluoro-1-methyl-ethyl)imidazo[1,2-a]pyridin-3-yl]-6-methoxy-benzamide]	1.5 to 4.5
			> 500	> 500	10 to 100	100 to 1000				COc1cc(-c2cnc3cc(C4(O)COC4)ccn23)cc(OC(F)F)c1C(=O)NC1CC1 [Cpd 177, N-cyclopropyl-2-(difluoromethoxy)-4-[7-(3-hydroxyoxetan-3-yl)imidazo[1,2-a]pyridin-3-yl]-6-methoxy-benzamide]	< 1.5
			> 500	> 500	10 to 100	1000 to 5000				COc1cc(-c2cnc3cc(C(C)(O)Cn4ccnc4)ccn23)cc(OC(F)F)c1C(=O)NC1CC1 (centres unmarked) [Cpd 181, N-cyclopropyl-2-(difluoromethoxy)-4-[7-(1-hydroxy-2-imidazol-1-yl-1-methyl-ethyl)imidazo[1,2-a]pyridin-3-yl]-6-methoxy-benzamide]	< 1.5
			> 500	> 500	10 to 100	100 to 1000				COCC(C)(O)c1ccn2c(-c3cc(OC)c(C(=O)NC4CC4)c(OC(F)F)c3)cnc2c1 (centres unmarked) [Cpd 182, N-cyclopropyl-2-(difluoromethoxy)-4-[7-(1-hydroxy-2-methoxy-1-methyl-ethyl)imidazo[1,2-a]pyridin-3-yl]-6-methoxy-benzamide]	< 1.5
			> 500	100 to 500	10 to 100	1000 to 5000				COc1cc(-c2cnc3cc(C4CCOCC4)c(OCCO)cn23)cc(OC(F)F)c1C(=O)NC1CC1 [Cpd 183, N-cyclopropyl-2-(difluoromethoxy)-4-[6-(2-hydroxyethoxy)-7-tetrahydropyran-4-yl-imidazo[1,2-a]pyridin-3-yl]-6-methoxy-benzamide]	< 1.5
			> 500	> 500	10 to 100	1000 to 5000				COc1cc(-c2cnc3cc(C(C)(O)CN4CC(F)(F)C4)ccn23)cc(OC(F)F)c1C(=O)NC1CC1 (centres unmarked) [Cpd 191, N-cyclopropyl-4-[7-[2-(3,3-difluoroazetidin-1-yl)-1-hydroxy-1-methyl-ethyl]imidazo[1,2-a]pyridin-3-yl]-2-(difluoromethoxy)-6-methoxy-benzamide]	< 1.5
			> 500	100 to 500	10 to 100	100 to 1000				COc1cn2c(-c3cc(OC)c(C(=O)NC4CC4)c(OC(F)F)c3)cnc2cc1C(C)(C)C#N [Cpd 200, 4-[7-(1-cyano-1-methyl-ethyl)-6-methoxy-imidazo[1,2-a]pyridin-3-yl]-N-cyclopropyl-2-(difluoromethoxy)-6-methoxy-benzamide]	< 1.5
			> 500	100 to 500	0.01 to 10	100 to 1000				[2H]C([2H])([2H])C(C#N)(c1ccn2c(-c3cc(OC)c(C(=O)NC4CC4)c(OC(F)F)c3)cnc2c1)C([2H])([2H])[2H] [Cpd 230, 4-[7-[1-cyano-2,2,2-trideuterio-1-(trideuteriomethyl)ethyl]imidazo[1,2-a]pyridin-3-yl]-N-cyclopropyl-2-(difluoromethoxy)-6-methoxy-benzamide]	< 1.5
			> 500	> 500	10 to 100	100 to 1000				COCC(C)(C)c1ccc2c(-c3cc(OC)c(C(=O)NC4CC4)c(OC(F)F)c3)cnn2c1 [Cpd 238, N-cyclopropyl-2-(difluoromethoxy)-6-methoxy-4-[6-(2-methoxy-1,1-dimethyl-ethyl)pyrazolo[1,5-a]pyridin-3-yl]benzamide]	< 1.5
						100 to 1000	100 to 500	10 to 100	0.01 to 10	COc1cc(-c2cnn3cc(C4COCCO4)ccc23)cc(OC(F)F)c1C(=O)N[C@@H]1C[C@@H]1F (stereo partly drawn) [Cpd 240, 2-(difluoromethoxy)-4-[6-(1,4-dioxan-2-yl)pyrazolo[1,5-a]pyridin-3-yl]-N-[(1R,2S)-2-fluorocyclopropyl]-6-methoxy-benzamide]	1.5 to 4.5
